Key:
Conditions in all cases: human; call rule not given here
Hepatotoxicity [1] = experiment: FDA HLAED, liver enzyme composite activity
Hepatotoxicity [2] = experiment: FDA HLAED, lactate dehydrogenase (LDH) increase
Hepatotoxicity [3] = experiment: FDA HLAED, serum glutamic pyruvic transaminase (SGPT) increase
Hepatotoxicity [4] = experiment: FDA HLAED, alkaline phosphatase increase
Hepatotoxicity [5] = experiment: FDA HLAED, gamma-glutamyl transferase (GGT) increase
Hepatotoxicity [6] = experiment: FDA HLAED, serum glutamic oxaloacetic transaminase (SGOT) increase
Throughout, for GGT Increase - Index Value: reference of the scale not given here.
Throughout, for LDH Increase - Index Value: reference of the scale not given here.

CO[C@]12CC[C@@]3(C[C@@H]1[C@](C)(O)C(C)(C)C)[C@H]1Cc4ccc(O)c5c4[C@@]3(CCN1CC1CC1)[C@H]2O5 [BUPRENORPHINE]
Composite Activity - Active (Hepatotoxicity [1]): 0
Composite Activity - Marginal (Hepatotoxicity [1]): 0
Composite Activity - Score (Hepatotoxicity [1]): Inactive
LDH Increase - Activity Score (Hepatotoxicity [2]): Inactive
LDH Increase - Index Value (Hepatotoxicity [2]): 0
LDH Increase - Number of Reports (Hepatotoxicity [2]): < 4
SGPT Increase - Activity Score (Hepatotoxicity [3]): Inactive
SGPT Increase - Index Value (Hepatotoxicity [3]): 0
SGPT Increase - Number of Reports (Hepatotoxicity [3]): < 4
Alkaline Phosphatase Increase - Activity Score (Hepatotoxicity [4]): Inactive
Alkaline Phosphatase Increase - Index Value (Hepatotoxicity [4]): 0
Alkaline Phosphatase Increase - Number of Reports (Hepatotoxicity [4]): < 4
GGT Increase - Activity Score (Hepatotoxicity [5]): Inactive
GGT Increase - Index Value (Hepatotoxicity [5]): 0
GGT Increase - Number of Reports (Hepatotoxicity [5]): < 4
SGOT Increase - Activity Score (Hepatotoxicity [6]): Inactive
SGOT Increase - Index Value (Hepatotoxicity [6]): 0
SGOT Increase - Number of Reports (Hepatotoxicity [6]): < 4

CC(N)C12CC3CC(CC(C3)C1)C2 (centres undefined) [RIMANTADINE]
Composite Activity - Active (Hepatotoxicity [1]): 0
Composite Activity - Marginal (Hepatotoxicity [1]): 0
Composite Activity - Score (Hepatotoxicity [1]): Inactive
LDH Increase - Activity Score (Hepatotoxicity [2]): Inactive
LDH Increase - Index Value (Hepatotoxicity [2]): 0
LDH Increase - Number of Reports (Hepatotoxicity [2]): < 4
SGPT Increase - Activity Score (Hepatotoxicity [3]): Inactive
SGPT Increase - Index Value (Hepatotoxicity [3]): 1.7
SGPT Increase - Number of Reports (Hepatotoxicity [3]): < 4
Alkaline Phosphatase Increase - Activity Score (Hepatotoxicity [4]): Inactive
Alkaline Phosphatase Increase - Index Value (Hepatotoxicity [4]): 1.7
Alkaline Phosphatase Increase - Number of Reports (Hepatotoxicity [4]): < 4
GGT Increase - Activity Score (Hepatotoxicity [5]): Inactive
GGT Increase - Index Value (Hepatotoxicity [5]): 0
GGT Increase - Number of Reports (Hepatotoxicity [5]): < 4
SGOT Increase - Activity Score (Hepatotoxicity [6]): Inactive
SGOT Increase - Index Value (Hepatotoxicity [6]): 3.3
SGOT Increase - Number of Reports (Hepatotoxicity [6]): < 4

COc1cc(NCc2ccc3nc(N)nc(N)c3c2C)cc(OC)c1OC [TRIMETREXATE]
Composite Activity - Active (Hepatotoxicity [1]): 1
Composite Activity - Marginal (Hepatotoxicity [1]): 0
Composite Activity - Score (Hepatotoxicity [1]): Inactive
LDH Increase - Activity Score (Hepatotoxicity [2]): Inactive
LDH Increase - Index Value (Hepatotoxicity [2]): 38.8
LDH Increase - Number of Reports (Hepatotoxicity [2]): < 4
SGPT Increase - Activity Score (Hepatotoxicity [3]): Inactive
SGPT Increase - Index Value (Hepatotoxicity [3]): 38.8
SGPT Increase - Number of Reports (Hepatotoxicity [3]): < 4
Alkaline Phosphatase Increase - Activity Score (Hepatotoxicity [4]): Inactive
Alkaline Phosphatase Increase - Index Value (Hepatotoxicity [4]): 38.8
Alkaline Phosphatase Increase - Number of Reports (Hepatotoxicity [4]): < 4
GGT Increase - Activity Score (Hepatotoxicity [5]): Inactive
GGT Increase - Index Value (Hepatotoxicity [5]): 0
GGT Increase - Number of Reports (Hepatotoxicity [5]): < 4
SGOT Increase - Activity Score (Hepatotoxicity [6]): Active
SGOT Increase - Index Value (Hepatotoxicity [6]): 77.5
SGOT Increase - Number of Reports (Hepatotoxicity [6]): < 4
